Reference: publication PMC4336144, “Screening the Medicines for Malaria Venture "Malaria Box" against the Plasmodium falciparum Aminopeptidases, M1, M17 and M18” (PLoS ONE, 2015)
Like-named read-outs stand apart in the source and are kept apart here.

Experiments:
PfA-M17 [1] = molecular target: T1, PfA-M17 (Plasmodium falciparum, UniProt Q8IL11); assay: Determination of Ki values (Dixon plots, H-Leu-NHMec); format: biochemical; details: for Ki: Dixon plot
T1 construct: made in house; host or cells: Escherichia coli
T1 sequence (Q8IL11 84-605 limits assumed): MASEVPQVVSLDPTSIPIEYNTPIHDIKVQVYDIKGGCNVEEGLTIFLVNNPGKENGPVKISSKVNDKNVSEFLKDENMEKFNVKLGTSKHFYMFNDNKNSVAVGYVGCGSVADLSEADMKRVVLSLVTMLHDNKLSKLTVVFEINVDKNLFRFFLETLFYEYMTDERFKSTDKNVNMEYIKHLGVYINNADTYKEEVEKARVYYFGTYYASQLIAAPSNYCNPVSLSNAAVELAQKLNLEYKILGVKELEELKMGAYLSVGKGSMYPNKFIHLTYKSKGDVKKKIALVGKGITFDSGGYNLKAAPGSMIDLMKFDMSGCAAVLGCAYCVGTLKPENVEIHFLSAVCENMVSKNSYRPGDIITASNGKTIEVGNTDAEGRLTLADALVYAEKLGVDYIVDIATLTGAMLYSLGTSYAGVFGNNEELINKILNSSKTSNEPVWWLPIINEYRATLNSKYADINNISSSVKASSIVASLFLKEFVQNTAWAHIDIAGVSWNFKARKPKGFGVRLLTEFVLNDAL
Description: (§1) MMV020750 was purchased from InterBioScreen (catalog number STOCK2S-51608) and MMV666023 was purchased from ChemBridge (catalog number 5566248). The MMV020750 derivatives 1, 2 and 3 were purchased from Ambinter (catalog numbers AMB425981, AMB2311364 and AMB8506251 respectively). 4-(4,5-Diphenyl-1H-imidazol-2-yl)benzoic acid (4) was purchased from TCI Chemicals, while 4-(4,5-diphenyl-1H-imidazol-2-yl)-N-hydroxybenzamide (5) was prepared from 4 as described (S1 Methods). Aminopeptidase activity of both PfA-M1 and PfA-M17 enzymes was determined by measuring the release of the fluorogenic leaving group, NHMec, from the fluorogenic peptide L-Leucine-7-amido-4-methylcoumarin hydrochloride (H-Leu-NHMec) (Sigma L2145). The assay protocol devised by Stack CM, et al, (J. Biol Chem, 2007) was modified and used, with the reactions were carried out at 37°C and monitored using a spectrofluorometer (BMG FLUOstar) with excitation at 355 nm and emission at 460 nm. Each enzyme was pre-incubated in 50 mM Tris pH 8.0, 2 mM CoCl2; 5% DMSO with each inhibitor for 10 min prior to the addition of substrate. Inhibitor concentration was assayed between 0 and 500 μM final for each compound, and repeated over a narrowed range if necessary. The fluorescence signal was monitored until a final steady state velocity, V, was obtained. The K i values were then evaluated using Dixon plots of 1/V versus inhibitor concentration while the substrate concentration was maintained lower than that of the Km of the enzyme.
This was a particular problem with the PfA-M17 enzyme assays where we noted that at higher concentrations of 4, a decrease in fluorescence was observed. We hypothesise that this is a result of PfA-M17 binding to the compound and quenching the intrinsic fluorescence. […] We therefore chose to analyse a reduced concentration range for 4.

PfA-M1 [2] = molecular target: T2, PfA-M1 (Plasmodium falciparum, UniProt O96935); assay: as above; format: biochemical
T2 construct: made in house; host or cells: Escherichia coli
T2 sequence (O96935 195-1085 limits assumed): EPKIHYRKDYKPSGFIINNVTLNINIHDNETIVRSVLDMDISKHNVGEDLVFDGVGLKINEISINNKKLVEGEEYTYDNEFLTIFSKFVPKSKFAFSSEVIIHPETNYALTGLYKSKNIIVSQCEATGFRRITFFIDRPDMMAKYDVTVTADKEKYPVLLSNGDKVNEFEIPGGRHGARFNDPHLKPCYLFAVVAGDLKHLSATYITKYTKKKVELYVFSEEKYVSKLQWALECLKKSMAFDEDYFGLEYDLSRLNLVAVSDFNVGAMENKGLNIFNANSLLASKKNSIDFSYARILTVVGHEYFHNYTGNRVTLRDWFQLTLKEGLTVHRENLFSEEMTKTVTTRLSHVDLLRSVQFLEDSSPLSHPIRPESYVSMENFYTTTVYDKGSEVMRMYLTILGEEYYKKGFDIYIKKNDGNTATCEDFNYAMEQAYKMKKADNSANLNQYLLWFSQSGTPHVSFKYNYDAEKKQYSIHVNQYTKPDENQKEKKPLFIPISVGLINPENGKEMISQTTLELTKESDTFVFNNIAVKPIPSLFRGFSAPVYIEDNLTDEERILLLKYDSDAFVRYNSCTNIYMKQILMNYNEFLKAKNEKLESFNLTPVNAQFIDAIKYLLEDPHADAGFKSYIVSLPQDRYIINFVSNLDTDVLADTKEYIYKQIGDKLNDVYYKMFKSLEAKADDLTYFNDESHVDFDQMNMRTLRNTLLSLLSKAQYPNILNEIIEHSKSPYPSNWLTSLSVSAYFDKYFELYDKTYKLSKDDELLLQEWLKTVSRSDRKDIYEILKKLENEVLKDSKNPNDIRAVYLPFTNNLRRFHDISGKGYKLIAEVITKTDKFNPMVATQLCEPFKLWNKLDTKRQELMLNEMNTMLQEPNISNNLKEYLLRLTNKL
Description: as §1

PfA-M17 [3] = molecular target: T1, PfA-M17; assay: Secondary screening against individual enzyme; format: biochemical; details: 100 μM compound; for reduction of PfA-M17 activity: n = 3
Description: (§2) Aminopeptidase activity of each individual enzyme in the presence of a single MMV compound (100 μM) was determined using Leu-Mec for both PfA-M1 (15 nM) and PfA-M17 (80 nM) or Glu-pNA for PfM18AAP (125 nM). Reactions were carried out in 96-well microtitre plates (200 μl total volume) in 50 mM Tris-HCl pH 8.0, 2 mM CoCl2 at 37°C. Following a 10 min incubation (enzyme and compound) at 37°C, reactions were initiated by addition of enzyme specific substrate. Progress curves were monitored using a FLUOstar Omega multimode reader (BMG LabTech) for 1.5 h at 37°C. As activity references, individual enzyme 'no compound' controls and 'positive inhibitor' controls were included in each 96 well plate assay. We applied a cut-off of < 10% activity in the presence of 100 μM compound for selection to the next phase. Compounds that were selected to proceed were then used in further assays to obtain n = 3.

PfA-M1 [4] = molecular target: T2, PfA-M1; assay: Secondary screening against individual enzyme; format: biochemical; details: 100 μM compound
Description: as §2

[5] = system: asexual blood stage of 3D7 Pf; details: cited from earlier work
PfA-M1 and/or PfA-M17 = assay: Multiplex primary screen, fluorogenic substrate Leu-Mec; format: biochemical, Plasmodium falciparum; details: 100 μM compound, multiplex assay
Description: A multiplex enzyme assay was developed to complete the primary screen of 400 compounds that were provided to us by MMV and SCYNEXIS. Combined PfMAP (15 nM PfA-M1; 80 nM PfA-M17 and 125 nM PfM18AAP) aminopeptidase activity in the presence of a single MMV compound (100 μM solubilized in 100% dimethyl sulfoxide, DMSO, final DMSO concentration in assay = 10%) was determined by simultaneous measurement of the release of the fluorogenic leaving group, -NHMec, from L-Leucine-7-amido-4-methylcoumarin-HCl (Leu-Mec) (Sigma) as well as the hydrolysis of p-nitroanilide from the chromogenic substrate, L-Glutamic acid p-nitroanilide (Glu-pNA) (Sigma). The fluorogenic substrate records the combined activity of PfA-M1 and PfA-M17 while the p-nitroanilide substrate is specific for PfM18AAP. Reactions were carried out in 96-well microtitre plates (200 μL total volume) in 50 mM Tris-HCl pH 8.0, 2 mM CoCl2 at 37°C. Following a 10 min incubation (multi-enzyme and single compound) at 37°C, reactions were initiated by addition of both fluorogenic and chromagenic substrates. Progress curves were monitored using a FLUOstar Omega multimode reader (BMG LabTech) for 1.5 h at 37°C. As activity references, individual enzyme and multiple enzyme 'no compound' controls and 'positive inhibitor' controls (with 10% DMSO) were included in each 96 well plate assay.

[6] = Dixon plot, read-out: Ki PfA-M1
[7] = ref Avery, read-out: EC50 (Avery)
[8] = ref ChEMBL, read-out: EC50 (ChEMBL)

Row | Structure (SMILES) | mode of inhibition of PfA-M17 (PfA-M17 [1]) | Ki (PfA-M17 [1]) | selectivity for PfA-M17 over M1 (PfA-M17 [1]; from Ki values) | mode of inhibition of PfA-M1 (PfA-M1 [2]) | Ki (PfA-M1 [2]; Dixon plot including the 500 uM values, read-out: Ki (with all values) PfA-M1) | Ki (PfA-M1 [2]; [6]) | reduction of PfA-M17 activity (PfA-M17 [3]) | PfA-M1 activity retained in the presence of compound (PfA-M1 [4]; n = 3, of total enzyme activity) | % Pf Inhibition @ 5 μM [5] | EC50 [5, 7] | EC50 [5, 8] | Activity (PfA-M1 and/or PfA-M17) (PfA-M1 and/or PfA-M17) | PfA-M17 activity, single dose secondary screen (PfA-M17 [3]; n = 1) | PfA-M1 activity, single dose secondary screen (PfA-M1 [4]; n = 1) | selectivity for PfA-M1 over M17 (PfA-M1 [2]; from Ki values) | reduction of PfA-M1 activity (PfA-M1 [4]; n = 3)
1 | COc1cc(-c2nc(-c3ccccc3)c(-c3ccccc3)[nH]2)cc(OC)c1O [MMV020750] | competitive | 12 µM | 6 fold | competitive | 225 µM | 75 µM | 95% | 75% | 97% | 1.2 µM | 0.8 µM | R |  |  |  | 
2 | O=C(Nc1ccc(-c2nc3ccccc3[nH]2)cc1)c1ccc(Cl)c(Cl)c1 [MMV665840] |  |  |  |  |  |  |  |  |  |  |  | R | false positive | false positive |  | 
3 | c1ccc(Cn2c(/N=N/c3c(Nc4ccccc4)ccc4ccccc34)nc3ccccc32)cc1 [MMV666023] | competitive | 23 µM |  | competitive |  | 4.5 µM | 70% |  | 96% | 0.04 µM | 2.7 µM | R |  |  | 5 fold | 95%
